We go through 2 molecules from US20060239926A1, “Specific high-relaxivity compounds” (GUERBET, priority 2003, published 2006).

In general, IC50 refers to the concentration needed to halve the response being measured.

The target in assay [1] is T1, human MMP-1 (Homo sapiens, UniProt P03956).
T1 sequence (P03956 100-469): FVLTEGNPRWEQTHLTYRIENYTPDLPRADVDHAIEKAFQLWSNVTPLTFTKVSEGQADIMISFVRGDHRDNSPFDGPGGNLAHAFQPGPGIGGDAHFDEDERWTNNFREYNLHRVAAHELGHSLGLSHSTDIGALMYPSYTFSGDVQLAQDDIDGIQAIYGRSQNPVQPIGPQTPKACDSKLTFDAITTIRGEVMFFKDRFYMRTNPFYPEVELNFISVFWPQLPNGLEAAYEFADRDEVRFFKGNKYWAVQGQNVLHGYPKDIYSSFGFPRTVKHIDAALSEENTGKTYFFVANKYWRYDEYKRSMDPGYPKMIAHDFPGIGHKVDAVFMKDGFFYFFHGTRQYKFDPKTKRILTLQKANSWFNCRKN
Put plainly: In vitro MMP-inhibiting activity (fluorimetry), MMP-1. The assay is classed as biochemical. On the procedure:
The inventors assayed the in vitro activity of the P947 and P967 gadolinium-chelate contrast products functionalized with matrix metalloproteases inhibitors (MMPs), on human MMP-1 and MMP-3. As regards the affinity of the biovector component, on the receptor, the controls were two peptides:
More precisely, the in vitro MMP-inhibiting activity was evaluated in the following way: • 1. Incubation of the test product in the presence of the MMP enzyme, at 37° C., for a defined period of time, and then measurement of the fluorescence of the medium (t=0). • 2. Induction of the enzyme reaction by addition of the substrate to (which becomes fluorescent when it is cleaved by the enzyme), and then incubation at 37° C. for 40 min. A second measurement of fluorescence is then taken (t=40). • 3. The activity of the MMP enzyme is determined by subtraction of the signal measured by fluorimetry: (t=40)-(t=0). • 4. The results are expressed as percentage inhibition of the activity of the control enzyme. • 5. The standard inhibitory product is TIMP-1.
The products were tested in duplicate, at 10^−5, 10^−7 and 10^−9 M with respect to peptides. Those which contain no peptides were treated in a manner similar to the corresponding functionalized contrast products.

Assay [2] concerns the target T2, MMP-2 (Homo sapiens, UniProt P08253).
T2 sequence (P08253 110-660): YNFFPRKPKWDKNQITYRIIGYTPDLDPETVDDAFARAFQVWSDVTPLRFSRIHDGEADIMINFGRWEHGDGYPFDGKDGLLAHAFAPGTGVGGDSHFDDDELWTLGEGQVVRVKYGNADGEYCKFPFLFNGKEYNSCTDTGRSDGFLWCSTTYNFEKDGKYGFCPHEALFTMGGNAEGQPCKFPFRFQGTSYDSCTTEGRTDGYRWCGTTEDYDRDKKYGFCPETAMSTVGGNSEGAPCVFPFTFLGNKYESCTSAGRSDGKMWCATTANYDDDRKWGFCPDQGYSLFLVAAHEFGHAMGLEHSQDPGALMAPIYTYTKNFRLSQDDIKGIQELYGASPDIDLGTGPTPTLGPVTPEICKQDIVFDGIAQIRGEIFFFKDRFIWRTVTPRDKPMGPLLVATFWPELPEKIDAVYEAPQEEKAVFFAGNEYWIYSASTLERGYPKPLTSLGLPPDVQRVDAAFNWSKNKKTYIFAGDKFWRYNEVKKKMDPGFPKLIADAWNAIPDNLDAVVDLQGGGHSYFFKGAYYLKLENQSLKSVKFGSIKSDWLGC
Put plainly: In vitro MMP-inhibiting activity (fluorimetry), MMP-2. Format: biochemical. On the procedure: The inventors also tested the in vitro activity in order to evaluate the inhibitory activity of P947 and of the tetrapeptide on MMP-2, a gelatinase A expressed constitutively in the vascular wall and overexpressed in the case of inflammation.
Control: commercial tetrapeptide (called peptide B in the study): 4-Abz-Gly-Pro-Dleu-Dala-NHOH (Bachem); inhibitor of MMP-1, MMP-2 and MMP-3.
The detailed protocol is as follows for MMP2s: the product tested is added to a 50 mM. Tris-HCl buffer (pH 7.5) containing 150 mM NaCl, 10 mM […], 0.02% NaN3, 0.05% Brij®35 and 0.35 μM MMP-2 activated by incubation for 120 minutes at 37° C. with 6.67 mM APMA. The fluorescence intensity is measured after preincubation for 30 minutes at 37° C., at lambda ex=340 nm and lambda em=405 nm. The enzyme reaction is initiated by adding 6 μM NFF-2, with subsequent incubation for 90 minutes at 37° C.

The target in assay [3] is T1, human MMP-1. The note with it: value of the peptide component, not of the Gd conjugate, read-out: IC50 OF THE PEPTIDE (LITERATURE); cited from earlier work.
Assay [4] has as its target T2, MMP-2. The following applies: read-out: IC50 on MMP-2 (literature); cited from earlier work.
Another assay relates to THP-1 cells. Put plainly: Uptake of PS-NBD by THP-1 cells, flow cytometry. The assay is classed as cell-based, human. The following applies: PS-NBD range 13, 32 and 64 μM; 24 hours. On the procedure: In vitro validation was performed by comparing the rate of uptake by activated macrophages versus non-activated macrophages (activated THP-1 cells are positive for the PS receptor). […] PS-NBD is a phosphatidylserine comprising only one fatty chain, the other arm linked to the serine head supporting the fluorescence marker NBD.
The THP-1 cell line is a human monocyte line which, after activation, differentiates into macrophages and expresses the phosphatidylserine receptor. These cells were cultured in the presence of phosphatidylserine-NBD.
Protocol with Flow Cytometry • 2 ml of a suspension of THP-1 at 10^6 C/ml are seeded in a 6-well plate. • The THP-1 are activated for 24 hours with 50 nmol/l of PMA. • […] of each of the dilutions (from the solution at 6.25 mmol/l) are incubated for 24 hours. • The excess product is suctioned off. • The cell layer is washed with 1 ml of RPMI without phenol red. • The excess is suctioned off. • The cells are resuspended in 1 ml of PBS (detachment of the cells using a flow of medium over the layer then scraping of the cells which have not detached, using a scraper). • The cells are kept in the dark at 4° C. while awaiting reading. • The fluorescence is read in FL1 at 525 nm by flow cytometry.
PS-NBD range tested: 13, 32 and 64 μM
Groups tested: THP-1/PMA, THP-1/PS-NBD at 5 μM.
For orientation: A flow cytometer gives signals particle by particle.

In assay [5] the test system is primary macrophages from WHHL rabbits. Put plainly: Ex vivo incubation of WHHL rabbit macrophages/aortic tissues with PS-NBD, fluorescence microscopy. Format: cell-based. The note with it: incubated 18 h ex vivo; 35 μM. As for the experimental part: In fact macrophages were isolated from aortic arch and mesenteric lymph node samples, and then incubated for 18 h ex vivo in the presence of PS-NBD. […] More precisely, the rabbit was subjected to exsanguinating perfusion with heparinized newborn calf serum before being sacrificed. The aortic arch, the thoracic aorta and the abdominal aorta were removed. The tissue removed were incubated for 18 hours in cell culture medium to which PS-NBD had been added and were then mounted in frozen blocks in order for histological sections to be cut. Certain sections were observed by fluorescence microscopy and others were immunolabelled using an anti-rabbit macrophage antibody (RAM 11).
• Incubation of the samples at 37° C. in 24-well plates in the presence of PS-NBD at 35 μM for 18 hours. • 2 rinses of the arteries in PBS. • Embedding of each piece of aorta in a freezing gel. • Cryofixation. • Storage of the components in a −80° C. freezer. Immunohistochemistry (HEGP) • The mouse primary antibody Ram 11 is used at a 1/100 dilution. • The secondary antibody (goat anti-mouse) is coupled to alkaline phosphatase. • The chromogen used is ADC (supplied by AbCys). • Fast re counterstaining is carried out.

The test system of assay [6] is macrophages located in the plaques. Put plainly: Ex vivo distribution of PS-NBD in atheroma plaques of ApoE-KO mice. The assay is classed as cell-based. On the procedure:
For this, samples of heart comprising valves and aortic arch and also the iliac bifurcation are incubated in the presence of PS-NBD.

Take “4-Abz-Gly-Pro-Dleu-Dala-NHOH [PEPTIDE B]”: the “SIGNIFICANT INHIBITORY EFFECT” value at human MMP-1 [1] (concentration of peptide 10^−5M) is 46%. Further, the “CONCENTRATION OF PEPTIDE (with significant inhibitory effect)” value on human MMP-1 [1] (tested at 10^−5, 10^−7 and 10^−9 M with respect to peptides) is 10^−5M. The “concentration from which significant inhibitory activity on MMP-2” value at MMP-2 [2] was ≥ 10^−5 M. For the same molecule, the IC50 is 1 µM at human MMP-1 [3] and 30 µM at MMP-2 [4].
For the molecule `CCCCCCCCCCCCCCCC(=O)OC[C@H](COP(=O)(O)OC[C@H](N)C(=O)O)OC(=O)CCCCCNc1ccc([N+](=O)[O-])c2nonc12` [PS-NBD], the “ratio of the negative control to the highest concentration (fluorescence, FL1 525 nm)” value in the assay on THP-1 cells was greater than 50. The “intracellular accumulation in macrophages” value in assay [5] was “large intracellular accumulation”. Besides, the “interaction with macrophages in atheroma plaques” value in assay [6] is “interacts specifically with the macrophages located in the plaques”.
